Key:
[1] = molecular target: Serine/threonine-protein kinase 25 (Homo sapiens) (UniProt O00506); details: Compound concentration 1000.0 nM
[2] = molecular target: Insulin receptor (Homo sapiens) (UniProt P06213); details: Compound concentration 1000.0 nM
[3] = molecular target: Mitogen-activated protein kinase kinase kinase 12 (Homo sapiens) (UniProt Q12852); details: Compound concentration 1000.0 nM
[4] = molecular target: Tyrosine-protein kinase Lyn (Homo sapiens) (UniProt P07948); details: Compound concentration 1000.0 nM
[5] = molecular target: Tyrosine-protein kinase Srms (Homo sapiens) (UniProt Q9H3Y6); details: Compound concentration 1000.0 nM
[6] = molecular target: Receptor-type tyrosine-protein kinase FLT3 (Homo sapiens) (UniProt P36888); details: Compound concentration 1000.0 nM
[7] = molecular target: Ankyrin repeat and protein kinase domain-containing protein 1 (Homo sapiens) (UniProt Q8NFD2); details: Compound concentration 1000.0 nM
[8] = molecular target: Tyrosine-protein kinase Mer (Homo sapiens) (UniProt Q12866); details: Compound concentration 1000.0 nM
[9] = molecular target: Cyclin-dependent kinase 19 (Homo sapiens) (UniProt Q9BWU1); details: Compound concentration 1000.0 nM
[10] = molecular target: Serine/threonine-protein kinase tousled-like 2 (Homo sapiens) (UniProt Q86UE8); details: Compound concentration 1000.0 nM
[11] = molecular target: Serine/threonine-protein kinase RIO3 (Homo sapiens) (UniProt O14730); details: Compound concentration 1000.0 nM
[12] = molecular target: Phosphatidylinositol 4,5-bisphosphate 3-kinase catalytic subunit gamma isoform (Homo sapiens) (UniProt P48736); details: Compound concentration 1000.0 nM
[13] = molecular target: Citron Rho-interacting kinase (Homo sapiens) (UniProt O14578); details: Compound concentration 1000.0 nM
[14] = test system: Tyrosine-protein kinase ABL1 (Homo sapiens), P00519 [H396P]; details: Compound concentration 1000.0 nM
[15] = molecular target: Serine/threonine-protein kinase NIM1 (Homo sapiens) (UniProt Q8IY84); details: Compound concentration 1000.0 nM
[16] = molecular target: Ribosomal protein S6 kinase alpha-2 (Homo sapiens) (UniProt Q15349); details: Compound concentration 1000.0 nM
[17] = molecular target: Proto-oncogene tyrosine-protein kinase receptor Ret (Homo sapiens) (UniProt P07949); details: Compound concentration 1000.0 nM
[18] = molecular target: BMP-2-inducible protein kinase (Homo sapiens) (UniProt Q9NSY1); details: Compound concentration 1000.0 nM
[19] = molecular target: Casein kinase I isoform delta (Homo sapiens) (UniProt P48730); details: Compound concentration 1000.0 nM
[20] = test system: Proto-oncogene tyrosine-protein kinase receptor Ret (Homo sapiens), P07949 [V804M]; details: Compound concentration 1000.0 nM
[21] = molecular target: Dual specificity tyrosine-phosphorylation-regulated kinase 1A (Homo sapiens) (UniProt Q13627); details: Compound concentration 1000.0 nM
[22] = test system: Tyrosine-protein kinase ABL1 (Homo sapiens), P00519 [F317I]; details: Compound concentration 1000.0 nM
[23] = molecular target: Inhibitor of nuclear factor kappa-B kinase subunit epsilon (Homo sapiens) (UniProt Q14164); details: Compound concentration 1000.0 nM
[24] = molecular target: Serine/threonine-protein kinase mTOR (Homo sapiens) (UniProt P42345); details: Compound concentration 1000.0 nM
[25] = molecular target: Serine/threonine-protein kinase Chk2 (Homo sapiens) (UniProt O96017); details: Compound concentration 1000.0 nM
[26] = molecular target: Glycogen synthase kinase-3 alpha (Homo sapiens) (UniProt P49840); details: Compound concentration 1000.0 nM
[27] = molecular target: Serine/threonine-protein kinase PAK 5 (Homo sapiens) (UniProt Q9P286); details: Compound concentration 1000.0 nM
[28] = molecular target: Serine/threonine-protein kinase Sgk1 (Homo sapiens) (UniProt O00141); details: Compound concentration 1000.0 nM
[29] = molecular target: Inhibitor of nuclear factor kappa-B kinase subunit alpha (Homo sapiens) (UniProt O15111); details: Compound concentration 1000.0 nM
[30] = molecular target: Mitogen-activated protein kinase kinase kinase 7 (Homo sapiens) (UniProt O43318); details: Compound concentration 1000.0 nM
[31] = molecular target: Mitogen-activated protein kinase 1 (Homo sapiens) (UniProt P28482); details: Compound concentration 1000.0 nM
[32] = molecular target: Dual specificity mitogen-activated protein kinase kinase 5 (Homo sapiens) (UniProt Q13163); details: Compound concentration 1000.0 nM
[33] = test system: Epidermal growth factor receptor (Homo sapiens), P00533 [T790M]; details: Compound concentration 1000.0 nM
[34] = molecular target: Calcium-dependent protein kinase 1 (Plasmodium falciparum) (UniProt P62344); details: Compound concentration 1000.0 nM
[35] = test system: Epidermal growth factor receptor (Homo sapiens), P00533 [L861Q]; details: Compound concentration 1000.0 nM
[36] = molecular target: Casein kinase II subunit alpha (Homo sapiens) (UniProt P68400); details: Compound concentration 1000.0 nM
[37] = molecular target: Serine/threonine-protein kinase MRCK beta (Homo sapiens) (UniProt Q9Y5S2); details: Compound concentration 1000.0 nM
[38] = molecular target: 5-hydroxytryptamine receptor 1D (Homo sapiens) (UniProt P28221); details: Compound concentration 10.0 uM
[39] = molecular target: Ribosomal protein S6 kinase alpha-1 (Homo sapiens) (UniProt Q15418); details: Compound concentration 1000.0 nM
[40] = test system: Phosphatidylinositol 4,5-bisphosphate 3-kinase catalytic subunit alpha isoform (Homo sapiens), P42336 [E545K]; details: Compound concentration 1000.0 nM
[41] = molecular target: Transient receptor potential cation channel subfamily M member 6 (Homo sapiens) (UniProt Q9BX84); details: Compound concentration 1000.0 nM
[42] = molecular target: Serine/threonine-protein kinase DCLK1 (Homo sapiens) (UniProt O15075); details: Compound concentration 1000.0 nM
[43] = molecular target: Ribosomal protein S6 kinase alpha-1 (Homo sapiens) (UniProt Q15418); details: Compound concentration 1000.0 nM; remark: listed apart in the source
[44] = molecular target: Cyclin-dependent kinase 17 (Homo sapiens) (UniProt Q00537); details: Compound concentration 1000.0 nM
[45] = molecular target: Protein kinase C eta type (Homo sapiens) (UniProt P24723); details: Compound concentration 1000.0 nM

Sequence of Ribosomal protein S6 kinase alpha-1 (Homo sapiens) (Q15418 whole entry, canonical isoform): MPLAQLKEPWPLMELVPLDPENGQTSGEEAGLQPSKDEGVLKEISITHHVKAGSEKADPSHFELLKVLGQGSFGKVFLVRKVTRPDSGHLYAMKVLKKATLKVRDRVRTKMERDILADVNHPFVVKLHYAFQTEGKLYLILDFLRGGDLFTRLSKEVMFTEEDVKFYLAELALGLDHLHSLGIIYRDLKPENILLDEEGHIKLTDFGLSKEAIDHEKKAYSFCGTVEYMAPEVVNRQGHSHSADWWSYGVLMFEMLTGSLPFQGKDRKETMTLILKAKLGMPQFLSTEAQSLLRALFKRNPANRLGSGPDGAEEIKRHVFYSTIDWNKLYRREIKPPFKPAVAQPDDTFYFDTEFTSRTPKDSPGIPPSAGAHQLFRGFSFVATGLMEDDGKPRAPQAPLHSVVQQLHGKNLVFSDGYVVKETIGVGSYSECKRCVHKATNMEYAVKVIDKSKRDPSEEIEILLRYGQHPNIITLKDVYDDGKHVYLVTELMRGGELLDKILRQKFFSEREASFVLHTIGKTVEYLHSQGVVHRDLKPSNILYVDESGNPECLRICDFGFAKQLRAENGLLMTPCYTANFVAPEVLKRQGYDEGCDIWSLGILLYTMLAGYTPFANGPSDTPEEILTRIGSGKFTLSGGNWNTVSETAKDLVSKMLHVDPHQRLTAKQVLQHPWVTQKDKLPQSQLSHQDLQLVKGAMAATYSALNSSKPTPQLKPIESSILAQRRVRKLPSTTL
Sequence of Inhibitor of nuclear factor kappa-B kinase subunit alpha (Homo sapiens) (O15111 whole entry): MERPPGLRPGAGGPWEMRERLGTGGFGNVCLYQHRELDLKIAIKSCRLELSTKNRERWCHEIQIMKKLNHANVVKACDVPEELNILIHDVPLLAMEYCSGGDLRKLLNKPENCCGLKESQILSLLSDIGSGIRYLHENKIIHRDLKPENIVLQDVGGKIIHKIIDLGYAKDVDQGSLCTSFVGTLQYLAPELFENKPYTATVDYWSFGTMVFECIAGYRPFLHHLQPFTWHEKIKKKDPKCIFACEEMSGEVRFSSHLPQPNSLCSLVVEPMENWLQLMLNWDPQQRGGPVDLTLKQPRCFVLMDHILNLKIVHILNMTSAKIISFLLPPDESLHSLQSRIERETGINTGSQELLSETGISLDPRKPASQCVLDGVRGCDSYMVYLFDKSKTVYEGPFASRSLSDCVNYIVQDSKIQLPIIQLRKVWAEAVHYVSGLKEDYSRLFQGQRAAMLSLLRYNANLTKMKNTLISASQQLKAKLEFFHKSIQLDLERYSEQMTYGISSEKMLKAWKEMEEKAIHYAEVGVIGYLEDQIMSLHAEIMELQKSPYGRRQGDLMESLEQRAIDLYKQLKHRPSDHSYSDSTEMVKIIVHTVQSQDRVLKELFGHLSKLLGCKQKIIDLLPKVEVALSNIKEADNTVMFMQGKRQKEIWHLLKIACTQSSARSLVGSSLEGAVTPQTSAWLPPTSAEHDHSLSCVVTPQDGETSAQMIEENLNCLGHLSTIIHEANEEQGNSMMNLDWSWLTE
Sequence of Transient receptor potential cation channel subfamily M member 6 (Homo sapiens) (Q9BX84 whole entry): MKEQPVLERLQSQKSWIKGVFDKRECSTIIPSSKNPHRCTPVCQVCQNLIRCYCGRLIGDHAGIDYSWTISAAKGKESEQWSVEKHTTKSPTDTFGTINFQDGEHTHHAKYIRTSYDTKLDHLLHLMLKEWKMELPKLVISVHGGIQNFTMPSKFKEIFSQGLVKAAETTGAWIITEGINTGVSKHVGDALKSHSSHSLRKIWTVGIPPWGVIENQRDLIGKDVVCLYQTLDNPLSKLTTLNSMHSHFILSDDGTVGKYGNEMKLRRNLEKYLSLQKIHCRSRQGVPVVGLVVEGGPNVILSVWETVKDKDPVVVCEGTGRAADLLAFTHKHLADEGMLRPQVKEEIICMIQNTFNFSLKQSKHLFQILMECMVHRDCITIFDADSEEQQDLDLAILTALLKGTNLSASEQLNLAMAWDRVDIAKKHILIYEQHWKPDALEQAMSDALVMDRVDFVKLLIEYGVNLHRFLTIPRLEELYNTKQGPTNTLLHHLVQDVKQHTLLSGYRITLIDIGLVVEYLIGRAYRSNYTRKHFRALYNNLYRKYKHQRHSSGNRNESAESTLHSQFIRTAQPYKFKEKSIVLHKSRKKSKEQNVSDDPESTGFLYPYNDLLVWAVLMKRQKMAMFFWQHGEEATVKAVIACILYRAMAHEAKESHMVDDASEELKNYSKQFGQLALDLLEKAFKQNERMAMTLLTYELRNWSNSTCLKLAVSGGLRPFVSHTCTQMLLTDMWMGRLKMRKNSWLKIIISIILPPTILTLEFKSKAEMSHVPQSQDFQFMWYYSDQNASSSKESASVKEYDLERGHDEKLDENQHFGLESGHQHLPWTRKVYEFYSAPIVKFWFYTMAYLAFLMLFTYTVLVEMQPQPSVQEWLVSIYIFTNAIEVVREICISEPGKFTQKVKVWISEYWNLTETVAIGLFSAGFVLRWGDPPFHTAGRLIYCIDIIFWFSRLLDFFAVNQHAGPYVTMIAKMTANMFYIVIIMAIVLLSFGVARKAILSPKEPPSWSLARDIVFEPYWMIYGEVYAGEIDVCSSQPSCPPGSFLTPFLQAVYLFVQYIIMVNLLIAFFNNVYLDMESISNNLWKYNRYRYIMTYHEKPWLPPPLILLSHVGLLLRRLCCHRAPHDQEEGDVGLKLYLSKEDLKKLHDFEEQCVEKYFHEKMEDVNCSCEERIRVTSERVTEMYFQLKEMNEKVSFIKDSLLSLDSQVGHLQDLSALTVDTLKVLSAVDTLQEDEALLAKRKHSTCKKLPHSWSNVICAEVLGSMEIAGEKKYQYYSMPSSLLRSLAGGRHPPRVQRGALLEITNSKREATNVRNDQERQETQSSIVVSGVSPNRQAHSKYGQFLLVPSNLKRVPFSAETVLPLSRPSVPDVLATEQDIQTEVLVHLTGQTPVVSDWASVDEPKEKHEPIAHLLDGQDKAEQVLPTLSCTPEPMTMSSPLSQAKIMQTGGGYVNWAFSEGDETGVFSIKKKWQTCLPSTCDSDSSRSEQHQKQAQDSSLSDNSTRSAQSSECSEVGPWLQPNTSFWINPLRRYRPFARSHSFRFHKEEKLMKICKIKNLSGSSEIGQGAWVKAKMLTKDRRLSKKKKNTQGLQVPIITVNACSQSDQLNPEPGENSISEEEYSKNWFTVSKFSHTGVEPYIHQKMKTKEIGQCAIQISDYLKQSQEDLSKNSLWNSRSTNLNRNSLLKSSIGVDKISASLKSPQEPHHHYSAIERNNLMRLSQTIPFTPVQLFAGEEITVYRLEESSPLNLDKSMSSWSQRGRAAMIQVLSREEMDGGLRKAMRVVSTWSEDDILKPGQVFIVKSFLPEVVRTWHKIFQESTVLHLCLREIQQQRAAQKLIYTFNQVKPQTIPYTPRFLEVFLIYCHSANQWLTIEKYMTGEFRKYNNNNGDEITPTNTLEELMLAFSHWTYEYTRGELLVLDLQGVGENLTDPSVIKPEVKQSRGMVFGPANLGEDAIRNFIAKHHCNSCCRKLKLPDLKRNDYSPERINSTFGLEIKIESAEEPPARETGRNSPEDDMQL
Sequence of Dual specificity mitogen-activated protein kinase kinase 5 (Homo sapiens) (Q13163 whole entry): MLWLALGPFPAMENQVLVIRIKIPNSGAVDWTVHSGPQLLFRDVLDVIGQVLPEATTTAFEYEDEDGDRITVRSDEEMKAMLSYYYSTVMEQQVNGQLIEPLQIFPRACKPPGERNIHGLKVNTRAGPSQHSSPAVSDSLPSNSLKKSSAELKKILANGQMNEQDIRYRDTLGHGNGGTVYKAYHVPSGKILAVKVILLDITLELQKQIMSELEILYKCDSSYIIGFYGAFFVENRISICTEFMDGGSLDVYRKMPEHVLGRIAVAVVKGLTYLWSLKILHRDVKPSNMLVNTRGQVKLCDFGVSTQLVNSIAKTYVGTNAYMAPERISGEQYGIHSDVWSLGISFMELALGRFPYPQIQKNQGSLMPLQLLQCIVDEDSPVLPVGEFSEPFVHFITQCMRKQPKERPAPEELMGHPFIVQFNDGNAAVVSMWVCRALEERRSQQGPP
Sequence of Proto-oncogene tyrosine-protein kinase receptor Ret (Homo sapiens) (P07949 whole entry): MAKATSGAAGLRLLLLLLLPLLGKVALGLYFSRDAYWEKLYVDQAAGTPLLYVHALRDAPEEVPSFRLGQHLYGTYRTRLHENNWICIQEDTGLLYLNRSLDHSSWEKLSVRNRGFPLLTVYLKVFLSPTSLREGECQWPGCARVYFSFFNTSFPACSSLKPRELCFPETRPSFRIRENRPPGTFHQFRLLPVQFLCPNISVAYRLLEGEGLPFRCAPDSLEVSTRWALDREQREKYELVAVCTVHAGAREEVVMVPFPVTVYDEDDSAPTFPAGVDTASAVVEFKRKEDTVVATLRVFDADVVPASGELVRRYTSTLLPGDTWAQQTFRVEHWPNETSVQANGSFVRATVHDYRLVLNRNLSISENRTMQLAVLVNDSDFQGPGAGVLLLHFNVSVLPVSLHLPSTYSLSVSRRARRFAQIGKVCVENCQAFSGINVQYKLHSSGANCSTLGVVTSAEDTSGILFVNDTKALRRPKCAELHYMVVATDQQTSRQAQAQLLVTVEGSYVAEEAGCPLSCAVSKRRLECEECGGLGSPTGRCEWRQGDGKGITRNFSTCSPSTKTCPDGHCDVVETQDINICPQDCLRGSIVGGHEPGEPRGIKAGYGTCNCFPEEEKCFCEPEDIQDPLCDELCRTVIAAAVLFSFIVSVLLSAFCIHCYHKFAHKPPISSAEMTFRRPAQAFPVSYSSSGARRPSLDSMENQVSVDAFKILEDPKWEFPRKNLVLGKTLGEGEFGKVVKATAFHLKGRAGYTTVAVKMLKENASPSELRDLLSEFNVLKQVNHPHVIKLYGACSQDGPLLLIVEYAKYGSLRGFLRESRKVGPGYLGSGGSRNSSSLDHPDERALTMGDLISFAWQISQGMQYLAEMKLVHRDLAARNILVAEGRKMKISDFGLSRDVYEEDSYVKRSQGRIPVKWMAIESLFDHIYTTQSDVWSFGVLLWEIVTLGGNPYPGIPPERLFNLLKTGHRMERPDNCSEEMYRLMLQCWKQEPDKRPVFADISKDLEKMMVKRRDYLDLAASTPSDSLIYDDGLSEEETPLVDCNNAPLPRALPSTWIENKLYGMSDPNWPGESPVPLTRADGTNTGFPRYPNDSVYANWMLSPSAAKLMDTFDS
Sequence of Proto-oncogene tyrosine-protein kinase receptor Ret (Homo sapiens), P07949 [V804M] (P07949 whole entry V804M): as the sequence (P07949 whole entry) above, with V804M counted along it

O=C(Nc1ccc(Oc2ccc(F)cc2)cc1)N1CCc2ncccc2[C@H]1c1ccc(F)cc1 [BAY-897]
inactive: residual activity [1] 100% | residual activity [2] 86% | residual activity [3] 100% | residual activity [4] 95% | residual activity [5] 94% | residual activity [6] 100% | residual activity [7] 92% | residual activity [8] 96% | residual activity [9] 79% | residual activity [10] 100% | residual activity [11] 96% | residual activity [12] 87% | residual activity [13] 91% | residual activity [14] 98% | residual activity [15] 80% | residual activity [16] 100% | residual activity [17] 94% | residual activity [18] 94% | residual activity [19] 90% | residual activity [20] 94% | residual activity [21] 95% | residual activity [22] 94% | residual activity [23] 89% | residual activity [24] 100% | residual activity [25] 94% | residual activity [26] 95% | residual activity [27] 100% | residual activity [28] 95% | residual activity [29] 100% | residual activity [30] 89% | residual activity [31] 100% | residual activity [32] 81% | residual activity [33] 87% | residual activity [34] 96% | residual activity [35] 83% | residual activity [36] 99% | residual activity [37] 88% | inhibition [38] 43.3% | residual activity [39] 79% | residual activity [40] 73% | residual activity [41] 100% | residual activity [42] 100% | residual activity [43] 92% | residual activity [44] 96% | residual activity [45] 93%

O=C(Nc1cnc(Oc2ccc(F)cc2)nc1)N1CCc2ncccc2[C@@H]1c1ccc(F)cc1 [BAY-899]
inactive: residual activity [1] 82% | residual activity [2] 81% | residual activity [3] 100% | residual activity [4] 82% | residual activity [5] 95% | residual activity [6] 90% | residual activity [7] 100% | residual activity [8] 100% | residual activity [9] 75% | residual activity [10] 89% | residual activity [11] 89% | residual activity [12] 85% | residual activity [13] 88% | residual activity [14] 97% | residual activity [15] 90% | residual activity [16] 97% | residual activity [17] 94% | residual activity [18] 93% | residual activity [19] 100% | residual activity [20] 94% | residual activity [21] 100% | residual activity [22] 99% | residual activity [23] 98% | residual activity [24] 100% | residual activity [25] 92% | residual activity [26] 93% | residual activity [27] 95% | residual activity [28] 75% | residual activity [29] 100% | residual activity [30] 90% | residual activity [31] 100% | residual activity [32] 83% | residual activity [33] 91% | residual activity [34] 95% | residual activity [35] 85% | residual activity [36] 93% | residual activity [37] 73% | inhibition [38] 4.38% | residual activity [39] 71% | residual activity [40] 63% | residual activity [41] 100% | residual activity [42] 83% | residual activity [43] 76% | residual activity [44] 97% | residual activity [45] 76%

From ChEMBL document CHEMBL4507317, “Data for DCP probe BAY-899” (2021)
